Legend:
Format in all cases: in vivo, rat
bone marrow of SD rats = assay: Immunofluorescence staining of the bone marrow microenvironment (nestin, TH, CD31)
Method: The testing utilized immunofluorescence staining of nestin for mesenchymal stem cell, tyrosine hydroxylase (TH+) for sympathetic nerve, and CD31 for vascular to evaluate the alteration of bone marrow microenvironment after […] of carboplatin.
After two cycles of chemotherapy, exemplified as using carboplatin with different dosages of 40 mg/kg and 60 mg/kg, the bone marrow of the rats from the five experimental groups was analyzed by immunofluorescence to evaluate the alteration of the bone marrow microenvironment. The bone marrow tissue of rats was stained with nestin, TH and anti-CD31 antibody for mesenchymal stem cell, sympathetic nerve and endothelial cell, respectively.

SD rats [1] = assay: Survival of rats after two cycles of carboplatin chemotherapy; conditions: after two cycles of carboplatin over a period of 60 days; carboplatin 60 mg/kg intraperitoneally on day 0, ES or G-CSF on day 2
Method: (§1) In FIG. 7A is seen white blood cell concentration for each of the five groups of rats which were tested over two cycles of testing. Male SD rats (weighing 350 to 400 g) were used for studying chemotherapy-induced cytopenia. The rats were divided into five experimental groups: control group; electrical stimulation group; carboplatin group; carboplatin+electrical stimulation (ES) group; and carboplatin+G-CSF group.
(§2) For each cycle of treatment, a single dose of carboplatin (e.g., 60 mg/kg) or vehicle (saline) was injected intraperitoneally on day 0. On day 2, electrical autonomic nerve stimulation was performed for a specified period (e.g., 60 minutes), or a single dose of G-CSF was administered on the rats according to the different experimental groups. In the example treatment each cycle of treatment is considered to be 28 days, however, a treatment cycle could span from one to eight weeks.
FIG. 10 illustrates an example embodiment 590 of results indicating survival rates of the rats in the same five groups (control, ES, carboplatin, carboplatin+ES, and carboplatin+G-CSF) as previously described after two cycles of carboplatin over a period of 60 days.

SD rats [2] = assay: Chemotherapy-induced cytopenia, complete blood count of peripheral blood
Method: as §1, §2
Blood samples for complete blood count (CBC) were collected in EDTA tubes on various days (day 0, 2, 7, 10, 14, 17, 21, and 28).

[3] = after three cycles of carboplatin
[4] = after two cycles of carboplatin, 40 mg/kg and 60 mg/kg

## N.N.O=C([O-])C1(C(=O)[O-])CCC1.[Pt+2] [carboplatin]
Bone marrow of SD rats; [3]
  area of TH+/CD31 by immunofluorescence staining versus control group: lower levels
  expression of TH+ in the sympathetic nerve: reduced expression
  expression of nestin (mesenchymal stem cell) in comparison to the control group: more extensive expression
Bone marrow of SD rats; [4]
  area of the sympathetic nerve along with arteriole compared to the control group: significantly decreased
  mesenchymal stem cells compared to the control group: increased
SD rats [1]
  survival rate: 37.5%
SD rats [2]; after carboplatin administration, whether rescue by electrical stimulation or G-CSF
  concentration of hemoglobin: significantly decreased
SD rats [2]; day 10 of the first and second cycle
  platelet count compared to the control group: significantly reduced

From patent publication US12544575B2, “Bioelectric neuromodulation for hematopoiesis regulation during chemotherapy” (THE REGENTS OF THE UNIVERSITY OF CALIFORNIA, priority 2020, dated 2026)
